Test results taken from US20210186930A1, “Methods of Treating Renal Disease Associated With Chronic Kidney Disease Such as Alport Syndrome” (UNIVERSITY OF MIAMI, priority 2018, published 2021).
Entries after “also recorded” stand apart in the source; their conditions may differ. Blank lines part the entries; values can stand above or below the molecule they belong to.

Assays:
Col4a3−/− mice [1] = assay: Renal function in Col4a3-/- mice treated with ezetimibe, ramipril or both (Example 1, FIG. 5); type: in vivo, mouse
From the text: Albumin/creatinine ratio: All albuminuria values are expressed as μg albumin/mg creatinine. Albumin/creatinine determined by ELISA (Bethyl Laboratories) for albumin detection and a biochemical assay based on the Jaffe method for creatinine detection (Stanbio) as previously described. Serology: Immediately prior to sacrifice, a blood sample was collected for the determination of BUN and lipid panel analysis in the comparative laboratory core facility of the University of Miami. Serum creatinine was determined by tandem mass spectrometry (UAB-UCSD O'Brien Core Center, University of Alabama). The following experiment was performed to investigate which treatment, ezetimibe (EZ), ramipril (Ramp) or the combination of both drugs (EZ+Ramp), would best preserve renal function in Col4a3 knockout mice, all drugs were administered to 4-week-old Col4a3−/− mice for 4 weeks as follows: ezetimibe (Ez) was orally administered at a concentration of 5 mg/kg BW, ramipril was added to the drinking water at a concentration that would lead to a daily ramipril uptake of 10 mg/kg BW. All mice were sacrificed at 8 weeks of age. The following four groups of mice were analyzed: Col4a3^+/+, Col4a3^−/−+Ez, Col4a3^−/−+Ramp and Col4a3^−/−+Ez+Ramp.

Col4a3−/− mice [2] = assay: Mesangial expansion (PAS) and renal fibrosis (Picrosirius Red) in Col4a3-/- mice (Example 3, FIG. 6); type: in vivo, mouse; details: treated vs untreated Col4a3−/− mice; ezetimibe 5 mg/kg, ramipril 10 mg/kg, 4 weeks
Procedure: Assessment of mesangial expansion: Periodic acid-Schiff (PAS) staining of 4 μm-thick tissue sections was performed using a standard protocol. Twenty glomeruli per section were analyzed for mesangial expansion by semi quantitative analysis (scale 0-4) performed by two blinded independent investigators.
Picrosirius red staining: Paraffin-embedded sections (4 μm thick) were deparaffinized with xylene and a graded alcohol series. Sections were rinsed for 5 min in distilled water, stained for 1 hour with picrosirius red in saturated aqueous picric acid, examined under a light microscope and photomicrographs were taken. Histological images were visualized using a light microscope (Olympus BX 41, Tokyo, Japan) at 40× magnification and analyzed using Image J software.
The following experiment was performed to investigate which treatment, ezetimibe (EZ), ramipril (Ramp) or the combination of both drugs (EZ+Ramp), would best preserve renal function in Col4a3 knockout mice, all drugs were administered to 4-week-old Col4a3−/− mice for 4 weeks as follows: ezetimibe (Ez) was orally administered at a concentration of 5 mg/kg BW, ramipril was added to the drinking water at a concentration that would lead to a daily ramipril uptake of 10 mg/kg BW. All mice were sacrificed at 8 weeks of age. The following four groups of mice were analyzed: Col4a3^+/+, Col4a3^−/−+Ez, Col4a3^−/−+Ramp and Col4a3^−/−+Ez+Ramp.
PAS staining was performed to detect and quantify mesangial expansion, Picrossirius Red staining to detect and quantify renal fibrosis in treated compared to untreated Col4a3^−/− mice. […] Representative images for PAS staining are shown in FIG. 6A and of Picrosirius Red staining to detect fibrosis in […]. Bar graph quantifications for both are shown in FIGS. 6C and 6D, respectively.

Col4a3−/− mice [3] = assay: Renal cortex lipid content in Col4a3-/- mice (Example 4, FIG. 7); type: in vivo, mouse; details: treated vs untreated Col4a3−/− mice; ezetimibe 5 mg/kg, ramipril 10 mg/kg, 4 weeks
Procedure: Determination of cholesterol content in kidney cortex: Tissue from kidney cortexes was homogenized in hypotonic buffer (10 mM HEPES pH7.0, 15 mM KCl, 1 mM MgCl2, 10 mM phosphatase inhibitors). Lipids from 100 μl of the homogenate were extracted with 1 ml of hexane:isopropanol (3:2, v/v), dried and reconstituted in 100 μl of isopropanol-NP40 (9:1, v/v). Tissue fractions not soluble in the organic solvent, were further dried, reconstituted in 8 M urea, and assayed for protein concentration using Pierce BCA protein assay kit (ThermoFisher Scientific, MA, USA). Total cholesterol from lipid extracts was determined by the enzymatic method as previously described (Robinet, P., Wang, Z., Hazen, S. L. & Smith, J. D. A simple and sensitive enzymatic method for cholesterol quantification in macrophages and foam cells. Journal of lipid research 51, 3364-3369, 2010). Briefly, endogenous peroxides present were eliminated by incubating samples and standards with catalase (Sigma-Aldrich, MO, USA), 45 U/ml final concentration, for 15 min at 37° C. […] The plates were incubated at 37° C. for 30 min and fluorescence was read at 530 nm (Ex) and 580 nm (Em) in a plate reader (SpectraMax M5, Molecular Devices, CA, USA). Cholesteryl esters (CE) quantification was based on the method described from Toshimi M, et al. Briefly, 25 μl of samples was mixed with 150 μl of free cholesterol decomposition reagent (45 U/ml catalase, 1 U/ml cholesterol oxidase) and incubated 2-4 h at 37° C., and then the final volume was brought up to 250 μl prior to determining free and total cholesterol remaining. Total cholesterol remaining was determined by mixing 50 μl of end product reaction with 50 μl of reagent A, as described above. Free cholesterol remaining was determined similarly, but without including cholesterol esterase in the reagent. CE was calculated by the formula CE=(TC−FC)×DF, where TC is the total cholesterol remaining, FC the free cholesterol remaining and DF the dilution factor, in this case, 10. Lipid content: Oil Red 0 staining was performed on frozen tissue sections and triglyceride content was determined on snap frozen kidney tissue as described above. The following experiment was performed to investigate which treatment, ezetimibe (EZ), ramipril (Ramp) or the combination of both drugs (EZ+Ramp), would best preserve renal function in Col4a3 knockout mice, all drugs were administered to 4-week-old Col4a3−/− mice for 4 weeks as follows: ezetimibe (Ez) was orally administered at a concentration of 5 mg/kg BW, ramipril was added to the drinking water at a concentration that would lead to a daily ramipril uptake of 10 mg/kg BW. All mice were sacrificed at 8 weeks of age. The following four groups of mice were analyzed: Col4a3^+/+, Col4a3^−/−+Ez, Col4a3^−/−+Ramp and Col4a3^−/−+Ez+Ramp.

[4] = cited from earlier work
[5] = cited from earlier work; remark: listed apart in the source
human podocytes = assay: Collagen treatment of human podocytes: lipid content and free fatty acid uptake (FIG. 1); type: cell-based
Procedure: (§1) Differentiated human podocytes were serum starved for 16 hours followed by 18 hours treatment with 50 μg/mL collagen I (Corning), collagen II (Discoverx), and collagen IV (Sigma Aldrich)
Lipid content determination: Following collagen treatment, podocyte lipid content was assessed after fixation with PFA and staining with Bodipy 493/503 and Cell Mask Blue (Invitrogen). The Opera High Content Screening system and Acapella Image Analysis software was used to determine the number of Bodipy 493/503 positive lipid droplets per cell. Triglyceride content was assessed using the Triglyceride Quantification Kit (Cell Biolabs) following manufacturer instructions and normalizing to cell protein content using the BCA method.
Free fatty acid uptake was assessed using the fluorometric free fatty acid uptake Kit (Abcam) in Ctrl and Col I treated podocytes after 1 hour serum starvation. The uptake of FFA was analyzed using a fluorimeter (SpectraMax5, […]).

DDR1 = target: T1, DDR1 (Homo sapiens, UniProt Q08345); assay: DDR1 activation in human podocytes treated with collagen (FIG. 2); type: cell-based
T1 construct: Differentiated human podocytes were serum starved for 16 hours followed by 18 hours treatment with 50 μg/mL collagen I; endogenous in cells; host or cells: conditionally immortalized human podocyte cell line (Saleem et al. 2002), differentiated
Procedure: as §1
Isolation of plasma membranes: Preparation of membrane pellets was performed by ultracentrifugation of cell pellets suspended in homogenization media (15 mM KCl, 1.5 mM MgCl2, 10 mM HEPES, 1 mM DTT) supplemented with protease inhibitors. Effective separation was verified by WB for Na-K ATPase.

[6] = Col4a3−/− mice treated 4 weeks, ezetimibe 5 mg/kg, ramipril 10 mg/kg, vs untreated Col4a3−/−
[7] = Col4a3−/− mice, 4 weeks treatment

T1 sequence (Q08345 19-913): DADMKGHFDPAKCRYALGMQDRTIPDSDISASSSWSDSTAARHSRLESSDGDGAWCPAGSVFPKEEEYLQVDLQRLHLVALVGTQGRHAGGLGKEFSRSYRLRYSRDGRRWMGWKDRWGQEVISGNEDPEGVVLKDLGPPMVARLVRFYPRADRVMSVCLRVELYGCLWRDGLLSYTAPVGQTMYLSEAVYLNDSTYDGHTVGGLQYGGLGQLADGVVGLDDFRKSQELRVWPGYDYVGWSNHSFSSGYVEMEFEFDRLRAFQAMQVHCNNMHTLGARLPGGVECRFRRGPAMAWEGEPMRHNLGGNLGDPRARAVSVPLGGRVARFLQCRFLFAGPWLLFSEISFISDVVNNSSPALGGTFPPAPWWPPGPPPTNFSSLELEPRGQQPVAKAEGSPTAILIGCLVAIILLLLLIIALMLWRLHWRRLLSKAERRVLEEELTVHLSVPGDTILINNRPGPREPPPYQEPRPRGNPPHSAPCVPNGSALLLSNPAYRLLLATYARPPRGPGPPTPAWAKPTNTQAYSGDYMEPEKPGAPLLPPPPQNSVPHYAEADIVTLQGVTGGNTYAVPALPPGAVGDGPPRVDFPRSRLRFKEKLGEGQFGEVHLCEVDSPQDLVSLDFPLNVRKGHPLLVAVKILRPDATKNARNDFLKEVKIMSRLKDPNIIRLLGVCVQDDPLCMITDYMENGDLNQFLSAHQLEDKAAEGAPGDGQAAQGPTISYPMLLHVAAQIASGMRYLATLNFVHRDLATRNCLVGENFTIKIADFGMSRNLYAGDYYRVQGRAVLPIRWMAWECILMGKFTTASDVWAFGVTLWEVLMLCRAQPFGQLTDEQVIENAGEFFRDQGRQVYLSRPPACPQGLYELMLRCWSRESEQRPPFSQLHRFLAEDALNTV

Molecule: CCOC(=O)[C@H](CCc1ccccc1)N[C@@H](C)C(=O)N1[C@H](C(=O)O)C[C@@H]2CCC[C@@H]21 [ramipril, (2S,3aS,6aS)-1[(S)—N—[(S)-1-Carboxy-3-phenylpropyl]alanyl]octahydrocyclop-enta[b]pyrrole-2-carboxylic acid, 1-ethyl ester]
albumin/creatinine ratio (ACR) (Col4a3−/− mice [1]; 4-week-old Col4a3−/− mice treated 4 weeks, ezetimibe 5 mg/kg BW oral, ramipril 10 mg/kg BW in drinking water, vs untreated Col4a3−/−): significant reduction in the albumin/creatinine ratio; also recorded: significant decrease in the albumin/creatinine ratio | serum BUN levels (Col4a3−/− mice [1]; [6]): significant reduction in the serum BUN levels | serum creatinine levels (Col4a3−/− mice [1]; [6]): significant reduction in the serum creatinine levels | reduction of BUN levels, compared to ezetimibe alone (Col4a3−/− mice [1]; [7]): superior effect on reducing BUN levels | reduction of serum creatinine, compared to ezetimibe alone (Col4a3−/− mice [1]; [7]): superior effect on reducing serum creatinine levels | mesangial expansion (PAS staining, score) (Col4a3−/− mice [2]): significant reduction; also recorded: significantly reduced mesangial expansion | renal fibrosis (Picrosirius Red staining) (Col4a3−/− mice [2]): significant reduction; also recorded: significantly reduced | esterified cholesterol (CE) content in kidney cortexes (Col4a3−/− mice [3]): reduces the esterified cholesterol content; also recorded: significantly decreased | triglyceride (TG) content in kidney cortexes (Col4a3−/− mice [3]): no effect on the Triglyceride content; also recorded: not observed | solubility in polar organic solvents and buffered aqueous solutions [4]: soluble | blood cholesterol levels ([5]; general knowledge stated in the patent): little or no effect | peripheral arterial resistance and blood pressure ([5]; hypertensive patients): reduction in blood pressure without a compensatory rise in heart rate | mortality ([5]; patients with clinical signs of congestive heart failure after surviving an acute myocardial infarction): reduce mortality

activation of DDR1 at the plasma membrane (DDR1; human podocytes, plasma membrane fraction): leads to activation of DDR1 | DDR1 activation (pDDR1) (DDR1; normal human podocytes): leads to DDR1 activation
Molecule: Col I: collagen I (Corning), 50 μg/mL, used to treat human podocytes
cholesterol ester to total cholesterol ratio (human podocytes; Col I treated human podocytes): mildly decreased | esterified cholesterol content (human podocytes; Col I treated human podocytes): increased | total cholesterol content (human podocytes; Col I treated human podocytes): increased total cholesterol content | cellular triglyceride content (human podocytes; human podocytes after Col I treatment): increased | number of lipid droplets per cell (BODIPY) (human podocytes; human podocytes, 50 μg/mL collagen, 18 hours, vs Ctrl): increased lipid droplet content | free fatty acid uptake (human podocytes; human podocytes, collagen I treated vs Ctrl): increased
